Holding throughout (assay): inhibition of tumour cell growth, NCI panel, 48 h
Assay [1] deals with RXF 393 renal.
The test system of assay [2] is MDA-MB-435.
Assay [3] has as its system NCI-H522 lung.
Assay [4] has as its system SNB-75 CNS.
The test system of assay [5] is HCT-116 colon.
In assay [6] the test system is HCT-15 colon.
Assay [7] deals with UACC-257 melanoma.
The test system of assay [8] is MDA-MB-231 breast.

“And” between values parts separate entries of the source, which are not always exact repeats. Equal entries are not always repeated.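 Results reflect a 48-hour exposure of cells in 96-well plates to compound at five concentrations. Here, GI50 denotes the concentration required for 50% inhibition of growth. TGI: total growth inhibition.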

Regarding `COc1cccc2c1C(=O)c1c(O)c3c(c(O)c1C2=O)C[C@@](O)(C(=O)CO)C[C@@H]3OC1CC2C(OCN2CN2COC3C(C)OC(O[C@H]4C[C@](O)(C(=O)CO)Cc5c(O)c6c(c(O)c54)C(=O)c4c(OC)cccc4C6=O)CC32)C(C)O1` (some centres undefined), the GI50 in assay [1] was 0.000978 µM; in assay [2], 0.013 µM; in assay [3], 0.00638 µM; in assay [4] it was 0.00419 µM; in assay [5], 0.00564 µM; in assay [6] it was 0.0278 µM. Also, the GI50 in assay [7] is 0.0015 µM; in assay [8] it was 0.0156 µM. Moreover, the TGI is 0.0101 µM in assay [1]; 0.0391 µM in assay [2]; 0.0238 µM in assay [3]; 0.0149 µM in assay [4]; greater than 0.39 µM in assay [5]; greater than 1 µM in assay [6]. Besides, the figures for the TGI in assay [7] and in assay [8] were 0.0208 µM and 0.072 µM, respectively.
With `O=C1/C(=C/c2ccc([N+](=O)[O-])s2)Oc2ccc(Br)cc21`, the GI50 in assay [1] was 0.274 µM; in assay [2], 0.397 µM; in assay [3] it was 0.177 µM; in assay [4], 0.342 µM; in assay [5] it was 0.202 µM; in assay [6], 0.208 µM. For the same molecule, the GI50 in assay [7] was 0.572 µM; in assay [8], 0.201 µM. Besides, the TGI turned out to be 0.813 µM in assay [1]; 1.78 µM in assay [2]; 0.351 µM in assay [3]; 4.17 µM in assay [4]; 0.41 µM in assay [5]; 0.583 µM in assay [6]. For the same molecule, the TGI in assay [7] came out at 3.96 µM; in assay [8], 0.436 µM.
With `O=C(N/N=C/c1coc2ccc(Cl)cc2c1=O)c1cc(O)c(O)c(O)c1`, the GI50 in assay [1] was 34.9 µM; in assay [2] it was 27.2 µM; in assay [3] it was 38.4 µM; in assay [4], 72 µM; in assay [5] it was 19.3 µM; in assay [6] it was 21.5 µM. Also, the GI50 in assay [7] was 39.9 µM; in assay [8], 19.3 µM. Also, the TGI in assay [1] is greater than 100 µM; in assay [2] it was 66.7 µM; in assay [3], greater than 100 µM; in assay [4], greater than 100 µM; in assay [5], 70 µM; in assay [6], 79.7 µM. The figures for the TGI in assay [7] and in assay [8] were greater than 100 µM and 45 µM, respectively.
As to `CCOC(=O)c1c(C)n(Cc2ccc(Cl)cc2Cl)c2c1cc(O)c1[nH]c(Cc3ccccc3)nc12`, the GI50 in assay [1] is 2.4 µM; in assay [2], 5.86 µM; in assay [3] it was 3.2 µM; in assay [4], 5.89 µM; in assay [5], 2.18 µM; in assay [6], 3.94 µM. The GI50 was 19.3 µM in assay [7] and 3.61 µM in assay [8]. The TGI in assay [1] is 5.23 µM; in assay [2], 24.7 µM; in assay [3] it was 15.6 µM; in assay [4] it was 30.8 µM; in assay [5], 4.76 µM; in assay [6], 18.5 µM. The TGI in assay [7] amounted to 39 µM; in assay [8], 12.5 µM.
Take `C=CCC(NCc1ccccc1)c1cn(C(=O)OCC)c2ccccc12` (centres undefined): the GI50 in assay [1] was 19 µM; in assay [2], 20.2 µM; in assay [3], 19.8 µM; in assay [4], 43.1 µM; in assay [5], 13 µM; in assay [6], 20.9 µM. Further, the GI50 was 23.8 µM in assay [7] and 18.2 µM in assay [8]. Also, the TGI is 46.5 µM in assay [1]; 45.9 µM in assay [2]; 42.6 µM in assay [3]; greater than 100 µM in assay [4]; 25.7 µM in assay [5]; 55 µM in assay [6]. Besides, the figures for the TGI in assay [7] and in assay [8] were 49.5 µM and 44.1 µM, respectively.
Turning to `Cc1ccc(S(=O)(=O)NC(=O)Nc2ncn[nH]2)cc1`, the TGI in assay [1], in assay [2], in assay [3], in assay [4], in assay [5] and in assay [6] was greater than 100 µM in each case. Also, the TGI in assay [7] and in assay [8] was greater than 100 µM throughout.
`CCc1n(Cc2ccc3ccccc3c2)cc[n+]1Cc1ccc2ccccc2c1`: the GI50 was 1.15 µM in assay [1]; 0.424 µM in assay [2]; 0.303 µM in assay [3]; 0.335 µM in assay [4]; 0.865 µM in assay [5]; 3.94 µM in assay [6]. Further, the GI50 in assay [7] is 0.554 µM; in assay [8], 0.392 µM. In addition, the TGI came to 2.63 µM in assay [1]; 1.57 µM in assay [2]; 1.44 µM in assay [3]; 1.71 µM in assay [4]; 2.16 µM in assay [5]; 15.3 µM in assay [6]. For the same molecule, the TGI in assay [7] was 3.27 µM; in assay [8] it was 1.44 µM.
For `Cc1nc2ccccc2c(/C=C/c2ccc(F)cc2)c1C(=O)/C=C/c1ccccc1`, the GI50 was 1.74 µM in assay [1]; 2.94 µM in assay [2]; 2 µM in assay [3]; 8.15 µM in assay [4]; 1.25 µM in assay [5]; 1.92 µM in assay [6]. The figures for the GI50 in assay [7] and in assay [8] were 2.82 µM and 2.24 µM, respectively. Moreover, the TGI in assay [1] is 3.26 µM; in assay [2], 12.2 µM; in assay [3], 5.79 µM; in assay [4] it was greater than 100 µM; in assay [5], 3.66 µM; in assay [6], 6.2 µM. Further, the TGI turned out to be 8.65 µM in assay [7] and 6.33 µM in assay [8].
For `O=NN(CC(=O)NNc1ccccc1)CC(=O)NNc1ccccc1`, the GI50 is greater than 100 µM in assay [1]; greater than 20.1 µM in assay [2]; 1.27 µM in assay [3]; greater than 45.4 µM in assay [4]; greater than 100 µM in assay [5]; 12.3 µM in assay [6]. Also, the figures for the GI50 in assay [7] and in assay [8] were 22.4 µM and 3.54 µM, respectively. For the same molecule, the TGI in assay [1], in assay [2], in assay [3], in assay [4], in assay [5] and in assay [6] was greater than 100 µM in each case. For the same molecule, the TGI in assay [7] and in assay [8] was greater than 100 µM each time.
Regarding `Cc1ccc(-c2csc3ncnc(Nc4cccc(O)c4)c23)cc1`, the GI50 in assay [1] is 48.2 µM; in assay [2], 16.7 µM; in assay [3], 18.5 µM; in assay [4], 39.6 µM; in assay [5], 20 µM; in assay [6] it was 19.8 µM. Besides, the GI50 in assay [7] was 17.5 µM; in assay [8] it was greater than 100 µM. For the same molecule, the TGI is 81.2 µM in assay [1]; 33.6 µM in assay [2]; 62.1 µM in assay [3]; greater than 100 µM in assay [4]; 39.6 µM in assay [5]; 44.5 µM in assay [6]. Moreover, the TGI in assay [7] is 38.9 µM; in assay [8], greater than 100 µM.
Consider `CC(C)C[C@H](NC(=O)[C@@H](N)Cc1cccc2ccccc12)B(O)O`, for which the GI50 is 0.136 µM in assay [1]; 0.114 µM in assay [2]; 1.07 µM in assay [4]; 0.138 µM in assay [5]; 0.35 µM in assay [6]; 0.315 µM in assay [7]. Besides, the GI50 in assay [8] is 0.798 µM. Further, the TGI in assay [3] is 0.741 µM; in assay [7], 1.12 µM and 0.114 µM.
In the case of `CCCCCCCCCCCCNCCCc1ccccc1`, the GI50 in assay [1] is 1.63 µM; in assay [2], 1.73 µM; in assay [3], 1.62 µM; in assay [4], 1.43 µM; in assay [5] it was 1.78 µM; in assay [6], 1.71 µM. Also, the values for the GI50 in assay [7] and in assay [8] were 1.74 µM and 1.61 µM, respectively. The TGI in assay [1] was found to be 3.1 µM; in assay [2], 3.17 µM; in assay [3], 3.03 µM; in assay [4], 2.89 µM; in assay [5] it was 3.17 µM; in assay [6], 3.33 µM. In addition, the TGI worked out at 3.18 µM in assay [7] and 3.12 µM in assay [8].
Consider `Nc1ccccc1SC(CC(=O)c1ccccc1)c1c(Cl)cccc1Cl` (centres undefined), for which the GI50 in assay [1] was 4.23 µM; in assay [2] it was 2.87 µM; in assay [3] it was 3.86 µM; in assay [4], 10.8 µM; in assay [5], 1.81 µM; in assay [6], 2.08 µM. The GI50 in assay [7] is 14.6 µM; in assay [8] it was 3.86 µM. For the same molecule, the TGI in assay [1] was determined as 17.4 µM; in assay [2] it was 10.7 µM; in assay [3] it was 12.6 µM; in assay [4], 30.1 µM; in assay [5] it was 4.56 µM; in assay [6], 5.92 µM. For the same molecule, the results for the TGI in assay [7] and in assay [8] were 28.6 µM and 20.4 µM, respectively.
For the molecule `C(#Cc1ccccc1C#Cc1cnccn1)c1cnccn1`, the GI50 in assay [1] is greater than 100 µM; in assay [2] it was 18.5 µM; in assay [3], greater than 39.2 µM; in assay [4] it was 29.2 µM; in assay [5], 27.8 µM; in assay [6], 17.5 µM. In addition, the GI50 in assay [7] was 22.7 µM; in assay [8], 21.4 µM. Besides, the TGI in assay [1] was greater than 100 µM; in assay [2], 51.8 µM; in assay [3] it was greater than 61.7 µM; in assay [4] it was greater than 100 µM; in assay [5] it was greater than 100 µM; in assay [6], 56 µM. The TGI in assay [7] was greater than 58.6 µM; in assay [8], greater than 71.9 µM.

These data come from PubChem BioAssay (NCI).
